Data taken from US12544382B2, “2, 4, 6-tri-substituted pyrimidine compound as ATR kinase inhibitor” (BEIJING TIDE PHARMACEUTICAL CO., LTD., priority 2019, dated 2026).

Assays:
[1] = test system: MV4-11 (leukemia) cells; test: In vitro cell proliferation inhibition assay (CellTiter-Glo), MV4-11; type: cell-based, human; conditions: MV4-11 cells
Protocol: (§1) By detecting the effect of compound on cell activity in vitro in the tumor cell lines TOV21G (ovarian cancer) and MV4-11 (leukemia), the effect of compound inhibiting cell proliferation was studied in this assay.
(§2) TOV21G cells and MV4-11 cells were purchased from American Type Culture Collection (ATCC).
MV-4-11 cells were cultured in IMDM medium (containing 20% FBS), each well of a 96-well culture plate was inoculated with about 10000 cells, and treated with different concentrations (0-10 μM) of compounds to be tested in triplex. Blank wells (containing medium only) and control wells (inoculated with cells but not treated with drug) were set. Cells were cultured for 120 hours, 40 μL Cell Titer-Glo solution was added to each well, incubated with shaking for 20 min in the dark, 100 μL solution was transferred from each well to a 96-well white plate, and the luminescence value was read by Biotek Synergy H1 multifunctional microplate reader. Inhibition rate (%)=100%×(control well−test well)/(control well−blank well)

[2] = target: ATR kinase (Homo sapiens (Human), UniProt Q13535); test: ATR kinase activity assay (time-resolved fluorescence, p53 substrate phosphorylation); type: biochemical
Sequence of ATR kinase (Q13535 whole entry): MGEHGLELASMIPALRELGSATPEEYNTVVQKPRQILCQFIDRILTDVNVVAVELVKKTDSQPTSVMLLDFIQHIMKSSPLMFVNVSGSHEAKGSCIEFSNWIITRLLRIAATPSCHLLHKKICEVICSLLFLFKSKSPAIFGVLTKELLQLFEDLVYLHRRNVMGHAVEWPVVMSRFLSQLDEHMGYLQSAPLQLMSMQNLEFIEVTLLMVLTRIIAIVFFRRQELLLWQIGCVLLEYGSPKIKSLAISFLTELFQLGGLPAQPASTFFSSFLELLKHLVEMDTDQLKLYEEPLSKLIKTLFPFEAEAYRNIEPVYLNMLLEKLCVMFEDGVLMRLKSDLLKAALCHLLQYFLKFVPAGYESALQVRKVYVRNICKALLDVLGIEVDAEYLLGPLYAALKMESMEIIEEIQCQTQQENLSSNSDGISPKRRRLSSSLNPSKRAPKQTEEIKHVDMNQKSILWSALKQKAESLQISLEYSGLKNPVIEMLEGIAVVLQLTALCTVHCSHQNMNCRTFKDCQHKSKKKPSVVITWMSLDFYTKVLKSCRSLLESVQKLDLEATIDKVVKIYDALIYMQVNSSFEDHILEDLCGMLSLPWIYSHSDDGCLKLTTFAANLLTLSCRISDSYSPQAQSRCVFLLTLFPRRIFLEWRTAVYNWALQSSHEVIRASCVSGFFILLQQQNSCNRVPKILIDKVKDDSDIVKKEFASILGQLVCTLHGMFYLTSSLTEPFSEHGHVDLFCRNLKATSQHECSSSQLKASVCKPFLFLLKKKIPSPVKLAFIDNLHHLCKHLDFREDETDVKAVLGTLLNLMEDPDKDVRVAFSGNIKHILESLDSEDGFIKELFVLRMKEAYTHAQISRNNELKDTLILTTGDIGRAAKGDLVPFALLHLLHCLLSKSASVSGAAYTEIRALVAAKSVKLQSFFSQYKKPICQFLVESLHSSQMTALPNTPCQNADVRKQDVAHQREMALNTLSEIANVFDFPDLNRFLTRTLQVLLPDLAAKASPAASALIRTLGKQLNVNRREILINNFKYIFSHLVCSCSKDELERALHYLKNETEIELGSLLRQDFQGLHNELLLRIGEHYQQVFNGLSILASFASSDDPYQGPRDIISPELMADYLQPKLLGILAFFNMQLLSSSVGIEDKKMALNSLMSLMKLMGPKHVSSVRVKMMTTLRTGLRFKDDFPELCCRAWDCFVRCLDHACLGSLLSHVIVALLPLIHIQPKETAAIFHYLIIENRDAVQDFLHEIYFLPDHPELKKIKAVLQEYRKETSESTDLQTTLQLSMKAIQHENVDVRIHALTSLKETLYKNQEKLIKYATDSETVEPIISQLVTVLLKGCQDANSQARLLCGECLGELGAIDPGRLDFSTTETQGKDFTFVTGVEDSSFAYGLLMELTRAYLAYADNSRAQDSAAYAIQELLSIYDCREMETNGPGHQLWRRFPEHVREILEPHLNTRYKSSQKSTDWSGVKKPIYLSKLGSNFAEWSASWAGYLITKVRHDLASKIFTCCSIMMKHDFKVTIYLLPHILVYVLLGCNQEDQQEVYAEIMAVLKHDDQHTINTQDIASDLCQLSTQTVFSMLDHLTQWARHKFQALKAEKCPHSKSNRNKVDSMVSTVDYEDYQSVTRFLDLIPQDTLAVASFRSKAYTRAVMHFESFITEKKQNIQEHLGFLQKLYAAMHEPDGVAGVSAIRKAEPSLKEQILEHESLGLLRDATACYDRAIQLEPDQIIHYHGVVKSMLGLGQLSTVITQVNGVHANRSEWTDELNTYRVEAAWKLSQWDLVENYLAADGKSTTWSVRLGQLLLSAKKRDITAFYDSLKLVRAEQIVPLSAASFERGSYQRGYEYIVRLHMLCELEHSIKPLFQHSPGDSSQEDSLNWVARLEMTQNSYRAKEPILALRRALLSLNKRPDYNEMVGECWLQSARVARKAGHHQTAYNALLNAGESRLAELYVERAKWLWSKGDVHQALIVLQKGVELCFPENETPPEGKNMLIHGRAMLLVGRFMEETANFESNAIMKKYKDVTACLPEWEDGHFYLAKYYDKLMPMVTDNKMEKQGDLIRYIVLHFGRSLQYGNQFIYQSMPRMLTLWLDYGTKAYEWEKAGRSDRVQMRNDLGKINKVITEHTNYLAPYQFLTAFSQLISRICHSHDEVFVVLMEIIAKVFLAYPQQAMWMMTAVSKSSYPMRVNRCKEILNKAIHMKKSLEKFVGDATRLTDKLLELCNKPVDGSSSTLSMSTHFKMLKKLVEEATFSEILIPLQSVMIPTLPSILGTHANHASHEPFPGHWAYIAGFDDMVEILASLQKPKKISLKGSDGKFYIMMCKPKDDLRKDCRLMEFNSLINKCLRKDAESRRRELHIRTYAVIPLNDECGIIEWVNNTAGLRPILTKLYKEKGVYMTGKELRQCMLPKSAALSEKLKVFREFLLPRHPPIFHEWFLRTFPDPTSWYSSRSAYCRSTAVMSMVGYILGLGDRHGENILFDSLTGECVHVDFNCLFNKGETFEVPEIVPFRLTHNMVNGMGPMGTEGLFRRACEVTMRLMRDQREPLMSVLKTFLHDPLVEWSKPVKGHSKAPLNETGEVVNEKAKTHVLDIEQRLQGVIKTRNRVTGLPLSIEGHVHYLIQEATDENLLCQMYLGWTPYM
Sequence of ATR kinase (Q8WXE1 whole entry partner): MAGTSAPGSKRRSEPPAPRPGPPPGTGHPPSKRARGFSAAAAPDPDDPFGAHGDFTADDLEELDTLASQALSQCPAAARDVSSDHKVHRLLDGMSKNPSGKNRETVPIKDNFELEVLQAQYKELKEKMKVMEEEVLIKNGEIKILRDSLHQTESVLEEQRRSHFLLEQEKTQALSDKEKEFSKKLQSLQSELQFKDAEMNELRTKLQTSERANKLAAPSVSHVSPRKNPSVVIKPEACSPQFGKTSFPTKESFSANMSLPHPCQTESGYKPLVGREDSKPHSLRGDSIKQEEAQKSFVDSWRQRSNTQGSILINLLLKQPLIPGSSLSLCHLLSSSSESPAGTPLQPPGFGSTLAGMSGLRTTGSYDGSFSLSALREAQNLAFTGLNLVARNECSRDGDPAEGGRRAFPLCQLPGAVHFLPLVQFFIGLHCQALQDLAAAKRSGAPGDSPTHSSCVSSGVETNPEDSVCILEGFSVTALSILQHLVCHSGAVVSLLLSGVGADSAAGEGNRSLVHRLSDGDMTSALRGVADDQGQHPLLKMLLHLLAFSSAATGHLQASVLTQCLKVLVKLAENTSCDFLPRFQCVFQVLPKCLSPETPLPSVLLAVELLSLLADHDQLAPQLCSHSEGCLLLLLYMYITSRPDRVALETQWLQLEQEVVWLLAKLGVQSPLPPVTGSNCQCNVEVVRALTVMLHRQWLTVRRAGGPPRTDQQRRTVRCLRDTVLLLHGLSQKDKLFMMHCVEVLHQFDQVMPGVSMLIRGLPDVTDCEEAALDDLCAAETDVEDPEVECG
Protocol: Biotinylated protein derived from p53 (Eurofins, art. No.: 14-952) was phosphorylated with ATR kinase. The amount of phosphorylated protein was determined by time-resolved fluorescence in this assay. The amount of phosphorylated protein was detected by anti-p53-phospho-(serine 15)-K-specific antibody (Cisbio, art. No.: 61GSTDLA) and d2 labeled anti-GST antibody (Cisbio, art. No. 61P08KAE). Before the experiment, the following working solution was prepared as required: 1× reaction buffer (20 mM HEPES PH8.0, 1% glycerol, 0.01% Brij-35), dilution buffer (20 mM HEPES PH8.0, 1% glycerol, 0.01% Brij-35, 5 mM DTT and 1% BSA), stop solution (20 mM HEPES PH8.0, 1% glycerol, 0.01% Brij-35, 250 mM EDTA), detection buffer (50 mM HEPES pH7.0, 150 mM NaCl, 267 mM KF, 0.1% sodium cholate, 0.01% Tween-20, 0.0125% sodium azide). The reagents used above are purchased from Sigma or Invitrogen, except for those where the manufacturer was mentioned.
Operations are as follows:
4× gradient dilution of compound solutions was prepared with 1× reaction buffer to obtain 9 compound solutions of different concentrations, and 2.5 μL 4× gradient dilution of compound solutions was added to a 384-well analysis plate (784075, Greiner). 4× p53 substrate working solution (40 nM) was prepared with 1× reaction buffer, and 2.5 μL 4× p53 substrate working solution was added to the 384-well analysis plate. 4×ATR/ATRIP working solution (12.8 ng/μL) was prepared with dilution buffer, and 2.5 μL 4×pATR/ATRIP working solution was added to the 384-well analysis plate. 4×ATP working solution (2 mM) was prepared with deionized water, 2.5 μL 4×ATP working solution was added to the 384-well analysis plate, and incubated at room temperature in dark for 30 minutes. 5 μL stop solution was added to the 384 analysis plate. Finally, 5 μL test mixture (0.084 ng/μL Anti-phospho-p53(ser15)-K and 5 ng/μL Anti-GST-d2) was added to the 384 well analysis plate, incubated overnight at room temperature, and the fluorescence signal was detected with ENVISION (Perkinelmer) instrument (excitation wavelength: 320 nm, emission wavelength: 665 nm and 615 nm). The inhibition rate in each well was calculated by the fluorescence intensity value of each hole: ER (Emission Ratio)=(Fluorescence intensity at 665 nm/Fluorescence intensity at 615 nm); inhibition rate=(ER positive-ER test compound)/(ER positive-ER negative)×100%, the IC50 value of compounds were calculated by standard parameter fitting software (GraphPad Prism 6.0).

[3] = test system: TOV21G (ovarian cancer) cells; test: In vitro cell proliferation inhibition assay (CellTiter-Glo), TOV21G; type: cell-based, human; conditions: 120 hours
Protocol: as §1, §2
TOV21G cells were cultured in MCDB105/M199 medium (containing 15% […]), and used for testing when the cell confluence reaches 85% or more. Each well of a 96-well culture plate was inoculated with about 1000 cells, cultured for 24 hours, and treated with different concentrations (0-10 μM) of compound solution to be tested in triplex. Blank wells (contains medium only) and control wells (seeded cells was not treated with drug) were set. Cells were cultured for 120 hours, 40 μL Cell Titer-Glo solution (Promega, #G7573) were added to each well, incubated with shaking for 20 min in the dark, 100 μL solution was transferred from each well to a 96-well white plate (Corning, #3917), and the luminescence value was read by Biotek Synergy H1 multifunctional microplate reader.

SMILES | IC50 ([1]; 120 hours) [µM] | IC50 [2] [µM] | IC50 [3] [µM] | IC50 ([1]; Homo sapiens, MV4-11, 120 h) [µM] | IC50 ([3]; Homo sapiens) [µM]
Cc1nn(C2CCNCC2)c(C(F)(F)F)c1-c1nc(-c2ccnc3[nH]ccc23)nc(N2CCOC[C@H]2C)c1F [Compound D11] | 0.37 | 0.008 | 0.64 |  | 
CNc1nc2cc(F)ccc2n1-c1nc(-c2c(C)nn(C3CCNCC3)c2C(F)(F)F)c(F)c(N2CCOC[C@H]2C)n1 [Compound D27] | 0.97 | 0.008 | 0.72 |  | 
CNc1nc2cc(F)ccc2n1-c1nc(-c2c(C(F)(F)F)nn(CS(C)(=O)=O)c2C)cc(N2CCOC[C@H]2C)n1 [Compound D42] |  | 0.097 |  | 1.73 | 2.01
Cc1nn(C2CCNCC2)c(C(F)(F)F)c1-c1cc(N2CCOC[C@H]2C)nc(-n2c(NC(=O)C3CC3)nc3ccccc32)n1 [Compound D21] |  | 0.002 |  | 0.19 | 0.14
Cc1nn(C2CCNCC2)c(C(F)(F)F)c1-c1cc(N2CCOC[C@H]2C)nc(-n2cnc3ccccc32)n1 [Compound D46] | 0.53 | 0.006 | 1.33 |  | 
CNc1nc2cc(F)ccc2n1-c1nc(-c2c(C)nn(C3CCNCC3)c2C(F)(F)F)cc(N2CCOC[C@H]2C)n1 [Compound D10] |  | 0.003 |  | 0.33 | 0.38
COc1cc(-c2nc(-c3c(C)nn(C4CCNCC4)c3C(F)(F)F)cc(N3CCOC[C@H]3C)n2)c2cc[nH]c2n1 [Compound D3] | 0.29 | 0.031 | 0.28 |  | 
Cc1nn([C@@H]2CCNCC2(F)F)c(C)c1-c1cc(N2CCOC[C@H]2C)nc(-c2cc(F)cc3[nH]ccc23)n1 [Compound D54b] |  | 0.013 |  | 0.26 | 0.44
CNc1nc2ccccc2n1-c1nc(-c2c(C(F)(F)F)nn(CS(C)(=O)=O)c2C)cc(N2CCOC[C@H]2C)n1 [Compound D44] |  | 0.034 |  | 0.68 | 0.79
Cc1nn(C2CCNCC2)c(C(F)(F)F)c1-c1cc(N2CCOC[C@H]2C)nc(-c2cncc3[nH]ccc23)n1 [Compound D19] |  | 0.001 |  | 0.08 | 0.11
Cc1nn(C2CCNCC2)c(C(F)(F)F)c1-c1cc(N2CCOC[C@H]2C)nc(-n2cnc3cc(F)ccc32)n1 [Compound D30a] | 0.41 | 0.016 | 2.09 |  | 
CCNc1nc2cc(F)ccc2n1-c1nc(-c2c(C)nn(C3CCNCC3)c2C(F)(F)F)cc(N2CCOC[C@H]2C)n1 [Compound D23] | 0.69 | 0.008 | 0.58 |  | 
CC(=O)Nc1nc2ccccc2n1-c1nc(-c2c(C)nn(C3CCNCC3)c2C(F)(F)F)cc(N2CCOC[C@H]2C)n1 [Compound D8] |  | 0.003 |  | 0.22 | 0.43
COc1c(-c2cc(N3CCOC[C@H]3C)nc(-c3ccnc4[nH]ccc34)n2)c(C(F)(F)F)nn1C1CCN(C)CC1 [Compound D14] |  | 0.028 |  | 0.81 | 1.2
CNc1nc2ccc(F)cc2n1-c1nc(-c2c(C)nn(C3CCNCC3)c2C(F)(F)F)cc(N2CCOC[C@H]2C)n1 [Compound D22] |  | 0.016 |  | 0.92 | 0.85
Cc1nn(C2CCNCC2)c(C(F)(F)F)c1-c1cc(N2CCOC[C@H]2C)nc(-n2c(N)nc3cc(F)ccc32)n1 [Compound D7] |  | 0.001 |  | 0.31 | 0.46
CNc1nc2ccccc2n1-c1nc(-c2c(C)nn(CS(C)(=O)=O)c2C(F)(F)F)cc(N2CCOC[C@H]2C)n1 [Compound D43] |  | 0.019 |  | 0.54 | 0.21
CNc1nc2cc(F)ccc2n1-c1nc(-c2c(C(F)(F)F)nn(C3CCNCC3)c2C)cc(N2CCOC[C@H]2C)n1 [Compound D16] | 1.36 | 0.082 | 1.05 |  | 
Cc1c(-c2cc(N3CCOC[C@H]3C)nc(-c3ccnc4[nH]ccc34)n2)c(C(F)(F)F)nn1C1CCCNC1 (single isomer, unassigned) [Compound D13] |  | < 0.001 |  | 0.25 | 0.8
Cc1c(-c2cc(N3CCOC[C@H]3C)nc(-c3cc(F)cc4[nH]ccc34)n2)c(C(F)(F)F)nn1C1CC2(CNC2)C1 [Compound D50] | 0.81 | 0.003 |  |  | 
CNc1nc2ccccc2n1-c1nc(-c2c(C)nn(CC3CCCNC3)c2C(F)(F)F)cc(N2CCOC[C@H]2C)n1 (stereo partly drawn) [Compound D40] |  | 0.005 |  | 0.58 | 0.72
CNc1nc2cc(F)ccc2n1-c1nc(-c2c(C)nn(CC3CCCNC3)c2C(F)(F)F)cc(N2CCOC[C@H]2C)n1 (stereo partly drawn) [Compound D39] |  | 0.003 |  | 1.23 | 0.86
Cc1nn(C[C@H]2CCCN2)c(C(F)(F)F)c1-c1cc(N2CCOC[C@H]2C)nc(-c2cc(F)cc3[nH]ccc23)n1 [Compound D53] | 0.62 | 0.004 | 0.71 |  | 
Cc1nn(C2CCNCC2)c(C(F)(F)F)c1-c1cc(N2CCOC[C@H]2C)nc(-n2c(NC(=O)C3CC3)nc3ccccc32)n1 [Compound D38] | 0.23 | 0.005 | 0.14 |  | 
Cc1c(-c2cc(N3CCOC[C@H]3C)nc(-c3ccnc4[nH]ccc34)n2)c(C(F)(F)F)nn1C1CCCNC1 (stereo partly drawn) [Compound D12] |  | 0.003 |  | 0.29 | 0.28
Cc1c(-c2cc(N3CCOC[C@H]3C)nc(-c3ccnc4[nH]ccc34)n2)c(C(F)(F)F)nn1C1CCNCC1 [Compound D2] |  | 0.006 |  | 0.78 | 0.92
CNc1nc2cc(Cl)ccc2n1-c1nc(-c2c(C)nn(C3CCNCC3)c2C(F)(F)F)cc(N2CCOC[C@H]2C)n1 [Compound D25] |  |  |  | 0.99 | 1.03
Cc1nn(C2CCN(C)CC2)c(C)c1-c1cc(N2CCOC[C@H]2C)nc(-c2ccnc3[nH]ccc23)n1 [Compound A37] |  | 0.037 |  |  | 
C[C@@H]1COCCN1c1cc(-c2ccnc3[nH]ccc23)nc(-c2ccc(S(C)(=O)=O)cc2)n1 [Compound B3] |  | > 10 |  |  | 
